We go through four compounds from ChEMBL document CHEMBL3045807, “Synthesis of novel pyrazolyl tetrazoles as selective COX-2 inhibitors” (Med Chem Res, 2013).

Data set [1] relates to Rattus norvegicus. In words: Ulcerogenic activity against fasted albino Rattus norvegicus (rat) assessed as ulcer index at 100 mg/kg, po administered QD for 3 days measured on day 4. The format is toxicity, organism-based. Also noted: dose 100 mg/kg, route oral. The following applies: in vivo, 72 h.
The subject of data set [2] is Rattus norvegicus. In words: Ulcerogenic activity against fasted albino Rattus norvegicus (rat) assessed as ulcer index at 50 mg/kg, po administered QD for 3 days measured on day 4. The format is toxicity, organism-based. On the set-up: dose 50 mg/kg, route oral. The following applies: in vivo, 72 h.
The species named for the next data set is Ovis aries. In words: Selectivity ratio of IC50 for Ovis aries (sheep) COX2 to IC50 for ovine COX1.
Data set [3] concerns Rattus norvegicus. In words: Anti-inflammatory activity in albino Rattus norvegicus (rat) assessed as carrageenan-induced paw edema volume at 20 mg/kg, po administered 1 hr prior to carrageenan-challenge measured at 2 hr (reference value: 4.25 +/- 0.07 ml). The class given is functional. Background: The carrageenan paw model is a standard test of acute inflammation.
Data set [4] relates to Rattus norvegicus. The data set can be described thus: Anti-inflammatory activity in albino Rattus norvegicus (rat) assessed as carrageenan-induced paw edema volume at 20 mg/kg, po administered 1 hr prior to carrageenan-challenge measured at 1 hr (reference value: 3.75 +/- 0.01 ml). The class given is functional.
Data set [5] has as its system Rattus norvegicus. In words: Anti-inflammatory activity in albino Rattus norvegicus (rat) assessed as carrageenan-induced paw edema volume at 20 mg/kg, po administered 1 hr prior to carrageenan-challenge measured at 0.5 hr (reference value: 2.5 +/- 0.02 ml). The format is functional.
Data set [6] relates to Rattus norvegicus. The data set can be described thus: Anti-inflammatory activity in albino Rattus norvegicus (rat) assessed as inhibition of carrageenan-induced paw edema at 20 mg/kg, po administered 1 hr prior to carrageenan-challenge measured at 3 hr relative to control. The class given is functional.

Turning to `COc1ccc(-c2nn(-c3ccccc3)cc2-c2nn[nH]n2)cc1`, in the data set on Rattus norvegicus [1], the UI came out at 14.22.
Consider `Clc1ccc(-c2nn(-c3ccccc3)cc2-c2nn[nH]n2)cc1`, for which the UI in the data set with Rattus norvegicus [1] came out at 13.9.
On to `Cc1ccc(-c2cc(C(F)(F)F)nn2-c2ccc(S(N)(=O)=O)cc2)cc1` [CELECOXIB], for which the UI in the data set on Rattus norvegicus [2] amounted to 12.51. For the same compound, the Ratio IC50 in the data set listed under Ovis aries came to 0.02.
Consider `O=C([O-])Cc1ccccc1Nc1c(Cl)cccc1Cl.[Na+]` [DICLOFENAC SODIUM], for which the Activity was found to be 0.25 mL with Rattus norvegicus [3], 1.15 mL with Rattus norvegicus [4] and 1.67 mL with Rattus norvegicus [5]. Besides, the UI in the data set with Rattus norvegicus [2] was 17.02. The inhibition in vivo – broadly, the relative decrease from the control value, in per cent – at 20 mg/kg in the data set with Rattus norvegicus [6] came to 88%.
